Common to all, as to type: cell-based
Assay [1] has as its system U251 human GBM cell line. The experiment in a line: Quantitative expression assays of alt-EJ genes in U251 cells. To be noted: time course, TGFβ signaling blockade with LY2157299. The source says: The above observations led to the hypothesis that TGFβ suppression of alt-EJ gene expression is a distinct mechanism that influences differential DNA repair pathway use. To test whether this biology is broadly employed beyond HNSC, glioblastoma (GBM) was considered because high TGFβ ligand and receptor expression correlate with poorer survival, and because TGFβ inhibition enhances radiosensitivity in GBM cell lines and primary tumor explants. First, the U251 human GBM cell line was investigated using the NANOSTRING™ panel. As observed in HNSC SAS cells, TGFβ inhibition increased expression of the key alt-EJ genes, LIG1, PARP1, and POLQ in GBM cells. […] U251 reporters (EJ2GFP) were established to evaluate alt-EJ repair.
(§1) Gene expression analyses methods: Total RNA was extracted. Sample RNA (250 ng) was used for the NANOSTRING™ DNA Damage Repair Gene Expression panel, consisting of 180 DDR genes and 12 housekeeping genes for normalization, according to manufacturer's instructions. Hybridization efficiency and background signals were evaluated based on internal positive and negative control probes analyzed using manufacturer's software. Ratio data from 2-3 biological repeats were used for further analysis and graphs.

For assay [2], the system named is SAS cells. The assay can be described thus: NANOSTRING DDR gene panel expression in SAS cells. To be noted: 24 h, TGFβ plus or minus inhibitor. The procedure:
TGFβ regulates expression of DDR genes. To further investigate TGFβ impact on DDR, the expression of DNA repair-associated genes was evaluated using the NANOSTRING™ DDR gene panel. […] According to KEGG pathway analyses, expression of genes implicated in HR and NHEJ was increased by TGFβ and reduced by its inhibition. […] BRCA1 expression was increased by TGFβ and suppressed by LY2157299, as was ABL1 and POLD4. In contrast, TGFβ decreased and LY2157299 inhibition increased expression of LIG1, PARP1, and POLQ, which are key genes involved in alt-EJ.
as §1

Assay [3] has as its system SAS cells. The experiment in a line: Pulsed-field gel electrophoresis of residual DSB after irradiation. The procedure: Next it was sought to test whether TGFβ inhibition would increase alt-EJ in the context of NHEJ inhibition. Here pulsed-field gel electrophoresis was used to measure residual DSB levels in SAS cells at various timepoints after irradiation (20 Gy). NHEJ was blocked by treating cells with the DNA-protein kinase inhibitor KU57788 1 hour before irradiation and TGFβ signaling was blocked 24 hours beforehand with LY36494 pretreatment.

For `Cc1cccc(-c2nn3c(c2-c2ccnc4ccc(C(N)=O)cc24)CCC3)n1` [LY2157299], in assay [1], the “expression of LIG1, PARP1, and POLQ” value is on record as “increased”. In assay [2], the “BRCA1 expression (as was ABL1 and POLD4)” value is reported as “suppressed”; the “TGFβ induction of CDKNJA” value was “blocked”; the “expression of LIG1, PARP1, and POLQ” value is “increased”.

In the case of `O=c1cc(N2CCOCC2)oc2c(-c3cccc4c3sc3ccccc34)cccc12` [KU57788], the “repair of radiation induced DSB” value in assay [3] (KU57788 1 hour before irradiation (20 Gy)) was “significantly inhibited”.

In the case of `c1ccc(-c2[nH]ncc2-c2ccnc3ccccc23)nc1` [LY36494], in assay [3] (LY36494 pretreatment 24 hours beforehand, with KU57788, 20 Gy), the “rescue of KU57788-inhibited repair of radiation induced DSB” value is reported as “partially rescued”.
